Reference: patent US8741653B2, “Single recombination system and methods of use” (priority 2008, dated 2014)

How the values were obtained:
MVA = type: cell-based, Modified Vaccinia Ankara virus

## CN(C)[C@@H]1C(O)=C(C(N)=O)C(=O)[C@@]2(O)C(O)=C3C(=O)c4c(O)cccc4[C@@](C)(O)[C@H]3C[C@@H]12 [tetracycline]
MVA
  reduction of MVA replication: 1 log
CEF cells
  cytotoxic effect of tetracycline: pronounced cytotoxic effect
